Source: ChEMBL document CHEMBL1833820, “Benzofurans from Styrax agrestis as acetylcholinesterase inhibitors: structure-activity relationships and molecular modeling studies” (J Nat Prod, 2011)
Calls of active or inactive are those of the source. The calls are words filed in the database; no cut-off is given here.

Experiments:
Acetylcholinesterase [1] = biological target: T1, Acetylcholinesterase (Homo sapiens, UniProt P22303); experiment: Inhibition of human serum BChE using butyrylthiocholine iodide as substrate by spectrophotometric method
T1 sequence (P22303 whole entry): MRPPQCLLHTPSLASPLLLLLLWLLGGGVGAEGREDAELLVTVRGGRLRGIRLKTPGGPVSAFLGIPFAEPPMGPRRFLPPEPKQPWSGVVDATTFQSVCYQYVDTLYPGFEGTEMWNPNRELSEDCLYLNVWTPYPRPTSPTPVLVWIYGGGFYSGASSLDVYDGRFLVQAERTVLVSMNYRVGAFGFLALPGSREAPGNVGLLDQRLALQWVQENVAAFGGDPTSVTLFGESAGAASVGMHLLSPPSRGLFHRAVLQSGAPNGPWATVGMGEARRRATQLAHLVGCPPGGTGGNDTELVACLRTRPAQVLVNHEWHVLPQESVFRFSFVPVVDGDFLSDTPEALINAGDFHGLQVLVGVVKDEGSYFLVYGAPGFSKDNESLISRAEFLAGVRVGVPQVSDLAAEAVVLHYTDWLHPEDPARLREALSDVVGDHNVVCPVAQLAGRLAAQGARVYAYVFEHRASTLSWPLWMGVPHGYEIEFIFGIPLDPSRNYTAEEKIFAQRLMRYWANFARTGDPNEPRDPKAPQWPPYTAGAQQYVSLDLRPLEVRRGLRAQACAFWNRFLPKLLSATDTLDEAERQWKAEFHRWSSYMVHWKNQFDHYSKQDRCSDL

[2] = biological target: Acetylcholinesterase (Electrophorus electricus) (UniProt O42275)
Sequence of Acetylcholinesterase (Electrophorus electricus) (O42275 24-633 limits assumed): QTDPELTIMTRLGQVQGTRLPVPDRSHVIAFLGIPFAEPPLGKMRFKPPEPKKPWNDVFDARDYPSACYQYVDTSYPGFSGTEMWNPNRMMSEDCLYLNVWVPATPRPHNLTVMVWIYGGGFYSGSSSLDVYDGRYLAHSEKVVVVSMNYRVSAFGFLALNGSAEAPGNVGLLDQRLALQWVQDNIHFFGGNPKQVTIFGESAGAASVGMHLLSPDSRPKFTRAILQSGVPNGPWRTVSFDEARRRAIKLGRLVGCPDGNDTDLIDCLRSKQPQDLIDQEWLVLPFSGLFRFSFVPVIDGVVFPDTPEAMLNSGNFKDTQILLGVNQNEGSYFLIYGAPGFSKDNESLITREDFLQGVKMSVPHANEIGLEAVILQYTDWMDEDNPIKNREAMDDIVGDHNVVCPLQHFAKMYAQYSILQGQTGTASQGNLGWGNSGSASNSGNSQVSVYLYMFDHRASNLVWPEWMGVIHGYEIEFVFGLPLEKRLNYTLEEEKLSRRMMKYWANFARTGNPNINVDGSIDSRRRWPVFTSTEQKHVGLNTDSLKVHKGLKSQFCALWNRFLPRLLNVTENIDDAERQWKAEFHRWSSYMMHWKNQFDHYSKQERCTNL
Description: (§1) Inhibition of electric eel AChE using acetylthiocholine iodide as substrate by spectrophotometric method

Acetylcholinesterase [3] = biological target: T1, Acetylcholinesterase
Description: (§2) Inhibition of human recombinant AChE using acetylthiocholine iodide as substrate by spectrophotometric method

Acetylcholinesterase [4] = biological target: Acetylcholinesterase (Electrophorus electricus, UniProt O42275)
Sequence of Acetylcholinesterase (Electrophorus electricus, UniProt O42275) (O42275 whole entry): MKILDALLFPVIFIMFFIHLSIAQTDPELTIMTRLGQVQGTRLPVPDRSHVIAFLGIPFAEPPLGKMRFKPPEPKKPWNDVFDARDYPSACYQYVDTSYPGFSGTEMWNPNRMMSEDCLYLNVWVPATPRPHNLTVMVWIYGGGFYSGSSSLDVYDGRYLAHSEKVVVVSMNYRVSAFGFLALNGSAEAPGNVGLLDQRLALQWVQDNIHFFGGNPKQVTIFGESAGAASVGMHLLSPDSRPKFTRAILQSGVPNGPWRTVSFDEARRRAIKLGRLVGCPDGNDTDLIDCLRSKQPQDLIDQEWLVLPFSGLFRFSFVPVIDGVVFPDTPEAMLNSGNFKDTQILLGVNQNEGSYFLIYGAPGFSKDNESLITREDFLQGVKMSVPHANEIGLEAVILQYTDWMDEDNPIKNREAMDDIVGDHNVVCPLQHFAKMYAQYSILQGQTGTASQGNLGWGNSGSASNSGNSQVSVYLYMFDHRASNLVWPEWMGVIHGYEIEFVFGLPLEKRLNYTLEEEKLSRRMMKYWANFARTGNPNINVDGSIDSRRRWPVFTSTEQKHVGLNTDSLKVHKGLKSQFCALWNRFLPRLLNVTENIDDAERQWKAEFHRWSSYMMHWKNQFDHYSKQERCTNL
Description: as §1

Acetylcholinesterase [5] = biological target: T1, Acetylcholinesterase; remark: listed apart in the source
Description: as §2

SMILES | inhibition (Acetylcholinesterase [1]) | inhibition [2] | inhibition (Acetylcholinesterase [3]) | IC50 (Acetylcholinesterase [4]) [nM] | IC50 (Acetylcholinesterase [5]) [nM]
COc1cc(CCCOC(C)=O)cc2cc(-c3ccc4c(c3)OCO4)oc12 | inactive | inactive | inactive |  | 
COc1cc(CCCOC(=O)CCCCCCCC=O)cc2cc(-c3ccc4c(c3)OCO4)oc12 | inactive |  | inactive |  | 
COc1cc(CCCOC(=O)Nc2ccccc2)cc2cc(-c3ccc4c(c3)OCO4)oc12 | inactive |  |  | 3300 | 4500
CCCCCCCC/C=C\CCCCCCCC(=O)OCCCc1ccc2oc(-c3ccc4c(c3)OCO4)cc2c1 | inactive |  |  | 2200 | 3100
COc1cc(CCCO)cc2cc(-c3ccc4c(c3)OCO4)oc12 | inactive | inactive | inactive |  | 
COc1cc(CCC(=O)O)cc2cc(-c3ccc4c(c3)OCO4)oc12 | inactive | inactive | inactive |  | 
CC(=O)OCCCc1ccc2oc(-c3ccc4c(c3)OCO4)cc2c1 | inactive | inactive | inactive |  | 
O=CCCCCCCCC(=O)OCCCc1ccc2oc(-c3ccc4c(c3)OCO4)cc2c1 | inactive |  | inactive |  | 
CC[C@H](C)C(=O)OCCCc1ccc2oc(-c3ccc4c(c3)OCO4)cc2c1 | inactive |  |  | 5500 | 6100
CCCC(=O)OCCCc1cc(OC)c2oc(-c3ccc4c(c3)OCO4)cc2c1 | inactive |  |  |  | 
CCCCC/C=C\C/C=C\CCCCCCCC(=O)OCCCc1cc(OC)c2oc(-c3ccc4c(c3)OCO4)cc2c1 | inactive |  |  | 1400 | 1700
COc1cc(CCCOC(=O)C(C)C)cc2cc(-c3ccc4c(c3)OCO4)oc12 | inactive |  |  |  | 
CCCCC/C=C\C/C=C\CCCCCCCC(=O)OCCCc1ccc2oc(-c3ccc4c(c3)OCO4)cc2c1 | inactive |  |  | 2000 | 2700
COc1cc(CCCOC(=O)NC(C)(C)C)cc2cc(-c3ccc4c(c3)OCO4)oc12 | inactive |  |  |  | 
OCCCc1ccc2oc(-c3ccc4c(c3)OCO4)cc2c1 | inactive | inactive | inactive |  | 
CCCCCCCC/C=C\CCCCCCCC(=O)OCCCc1cc(OC)c2oc(-c3ccc4c(c3)OCO4)cc2c1 [EGONOL OLEATE] | inactive |  |  | 1400 | 1800
COc1cc(CCC=O)cc2cc(-c3ccc4c(c3)OCO4)oc12 | inactive | inactive | inactive |  | 
CCC(=O)OCCCc1cc(OC)c2oc(-c3ccc4c(c3)OCO4)cc2c1 | inactive | inactive | inactive |  | 
CC[C@H](C)C(=O)OCCCc1cc(OC)c2oc(-c3ccc4c(c3)OCO4)cc2c1 | inactive |  |  | 4800 | 5900
